The source made the active and inactive calls. No rule for the calls is given here. Where only a bound is given, the exact number is not on record here.

As a reminder, the IC50 is the concentration that inhibits the measured activity by half. The term inhibition denotes the share of the control response that was lost under treatment.

In assay [1] the test system is Saccharomyces cerevisiae growth inhibition, permissive control. Put plainly: concentration-response yeast growth inhibition under permissive conditions, counter-assay for yeast lifespan-shortening chemical project (AID 850).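 Also: growth read as optical density after one day of incubation.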
Assay in assay [2]: as above
The conditions noted are these: Saccharomyces cerevisiae growth inhibition, permissive control, measured here: maximum growth inhibition, stronger effect = higher value.

As to `CCCCC(=O)NNC(=S)NC(=O)CCC`, the IC50 in assay [1] was 29.7 µM. In assay [2] (at 50 µM), this compound had an inhibition of 75.2%.

With `Cc1ccc(OC(=S)Nc2ccc(O)cc2)cc1`, in assay [1], the IC50 is 16.3 µM. The inhibition in assay [2] (at 50 µM) is 99.6%.

Consider `c1ccc(-c2csc3nnc(SCc4ccc5c(c4)OCO5)n23)cc1`, for which the IC50 in assay [1] is > 100 µM (inactive). For the same compound, the inhibition in assay [2] (at 0.781 µM) was found to be 9.45%.

Regarding `CC(C)(C)n1nc(-c2ccc(F)cc2)c2c(N)ncnc21`, the IC50 in assay [1] is < 0.098 µM. Moreover, the inhibition in assay [2] (at 25 µM) was found to be 86.7%.

As for `Cc1sc2ncnc(N/N=C/c3ccccc3O)c2c1C`, the IC50 in assay [1] was 32.2 µM. The inhibition in assay [2] (at 50 µM) stood at 94.2%.

For `O=C1OCC(CO)(CO)N=C1NNc1ccc(Cl)c(Cl)c1`, the IC50 in assay [1] was 1.6 µM. The inhibition in assay [2] (at 50 µM) is 98.6%.

Consider `Nc1[nH]c(=O)ncc1F`, for which the IC50 in assay [1] is 17.5 µM. The compound further displayed an inhibition in assay [2] (at 50 µM) of 84.8%.

Take `Cn1c2ccccc2c2cc(C(=O)O)ccc21`: in assay [1], the IC50 was > 100 µM (inactive). The inhibition in assay [2] (at 50 µM) worked out at 23.6%.

In the case of `O=C(O)c1cc2c(s1)-c1ccccc1CC2`, in assay [1], the IC50 is 50.5 µM. The compound also returned an inhibition in assay [2] (at 50 µM) of 47.3%.

For the compound `COc1ccc(/C=C2/C(=O)ON=C2c2ccccc2)cc1OC`, in assay [1], the IC50 was > 100 µM (inactive). Moreover, in assay [2] (at 25 µM), the inhibition was found to be 27.4%.

With `Cc1cc(N2CCN(c3cccc(C)c3C)CC2)nc(-c2ccccc2)n1`, the IC50 in assay [1] was 37.3 µM. The inhibition in assay [2] (at 50 µM) amounted to 93%.

On to `Cc1ccc2[nH]c3c(c2c1)CCc1cn[nH]c1-3`, for which the IC50 in assay [1] was 14.7 µM. This compound returned an inhibition in assay [2] (at 50 µM) of 98.6%.

As for `CC12C(=O)N(c3cccc4cccnc34)C(=O)C1C1C=CC2C1` (stereo unspecified), the IC50 in assay [1] is > 100 µM (inactive). Moreover, the inhibition in assay [2] (at 0.781 µM) came to 13.8%.

As for `Cc1cc(C)nc(/N=c2/ssnc2Cl)c1`, in assay [1], the IC50 was > 100 µM (inactive). Moreover, in assay [2] (at 6.25 µM), the inhibition came out at 29.2%.

Regarding `CN(c1ccc(O)cc1)c1nc(-c2ccccc2)cs1`, the IC50 in assay [1] was > 100 µM (inactive). The same compound had an inhibition in assay [2] (at 0.781 µM) of 9.5%.

As for `Oc1c(C(Nc2nc3ccccc3s2)c2ccco2)ccc2cccnc12` (stereo unspecified), the IC50 in assay [1] was > 100 µM (inactive). In addition, in assay [2] (at 50 µM), the inhibition is 23.2%.

As for `Cc1ccccc1C(=O)O/N=C/c1c(N2CCOCC2)n(C)c2ccccc12`, in assay [1], the IC50 is 50.7 µM. Moreover, the inhibition in assay [2] (at 50 µM) was found to be 57.1%.

For the compound `CCOC(=O)C1C(C)N=C2SCC(=O)N2C1c1cccc(Br)c1` (stereo unspecified), in assay [1], the IC50 was > 100 µM (inactive). This compound also showed an inhibition in assay [2] (at 12.5 µM) of 12.2%.

As for `N#C/C(=C/c1cn(-c2ccccc2)nc1-c1cccc(OCc2ccc(F)cc2)c1)C(=O)NCCCn1ccnc1`, in assay [1], the IC50 is > 100 µM (inactive). The inhibition in assay [2] (at 0.391 µM) was found to be 4.5%.

On to `Cc1ccc(-n2c(C)cc(C(=O)COC(=O)c3ccc[nH]c3=O)c2C)cc1C`, for which, in assay [1], the IC50 is 10.8 µM. The same compound showed an inhibition in assay [2] (at 50 µM) of 99.6%.

Take `O=C1c2ccccc2NC(c2ccc(-c3cccc(Cl)c3)o2)N1O` (stereo unspecified): the IC50 in assay [1] is 47.1 µM. In assay [2] (at 50 µM), this compound yielded an inhibition of 52.3%.

Regarding `COc1cccc2c(=O)c3c(cnn3C)n(C)c12`, the IC50 in assay [1] was > 100 µM (inactive). Moreover, in assay [2] (at 25 µM), the inhibition was determined as 21.2%.

On to `Cn1c(N2CCOCC2)c(/C=N/OC(=O)c2ccc(F)cc2)c2ccccc21`, for which, in assay [1], the IC50 was > 100 µM (inactive). The compound further had an inhibition in assay [2] (at 50 µM) of 19.1%.

Consider `CC1(C)C(C=C(Cl)Cl)C1C(=O)Nc1ccc([N+](=O)[O-])cc1` (stereo unspecified), for which the IC50 in assay [1] was > 100 µM (inactive). In addition, the inhibition in assay [2] (at 50 µM) turned out to be 15.4%.

Consider `C=CCN1C(=O)/C(=C/c2cccs2)C(=O)NC1=S`, for which, in assay [1], the IC50 is 6.15 µM. In assay [2] (at 50 µM), the inhibition is 99.8%.

Consider `Cc1cc(O)c(/C=N/Nc2cccc(Cl)c2)c(=O)o1`, for which, in assay [1], the IC50 is 26.7 µM. Further, the inhibition in assay [2] (at 50 µM) was 80.8%.

On to `Cc1ccc(C(=O)O/N=C/c2c(N3CCOCC3)n(C)c3ccccc23)cc1`, for which the IC50 in assay [1] is > 100 µM (inactive). The compound also had an inhibition in assay [2] (at 6.25 µM) of 18.7%.

`Clc1ccc(N/N=C/c2cccnc2)cc1`: the IC50 in assay [1] was 19 µM. In assay [2] (at 25 µM), this compound yielded an inhibition of 78.3%.

Take `CN1CCc2cc3c(c4c2[C@H]1[C@H](O)c1ccccc1-4)OCO3`: in assay [1], the IC50 is > 100 µM (inactive). The compound also had an inhibition in assay [2] (at 50 µM) of 11.1%.

On to `Cc1nnc(C)n1/N=C/c1cc(Br)cc(Br)c1O`, for which, in assay [1], the IC50 is 0.324 µM. In assay [2] (at 50 µM), the inhibition came to 99.2%.

On to `O=S(=O)(/N=C(\Sc1ccc(Cl)cc1)c1ccccc1)c1ccccc1`, for which, in assay [1], the 50% inhibitory concentration (IC50) is 33.3 µM. Further, in assay [2] (at 50 µM), the inhibition turned out to be 74%.

With `COC(=O)Cc1cc(=O)n(-c2nc3ccccc3[nH]2)[nH]1`, the IC50 in assay [1] was 45.1 µM. For the same compound, in assay [2] (at 50 µM), the inhibition came out at 64.1%.

Consider `Cn1cccc1C(=O)Nc1nc(-c2ccccn2)cs1`, for which the IC50 in assay [1] was 22.5 µM. Also, in assay [2] (at 50 µM), the inhibition turned out to be 97.9%.

The values are drawn from PubChem BioAssay AID850 (SRMLSC, 2007).
